Earlier results, collected in patent US20080138404A1, “EXTENDED RELEASE FORMULATIONS OF CARVEDILOL” (BIOVAIL LABORATORIES INTERNATIONAL S.R.L., priority 2006, published 2008).

What was measured:
[1] = tested on: plasma protein, primarily albumin; details: following oral administration in healthy subjects
[2] = man
[3] = not given; remark: listed apart in the source

SMILES: COc1ccccc1OCCNCC(O)COc1cccc2[nH]c3ccccc3c12 (racemic) [Carvedilol]
- solubility (above a pH of 9.0): < 1 µg/mL
- saturation solubility (pH 7, room temperature): about 23 μg/ml
- bound to plasma protein [1]: more than 98%
- colonic absorption relative to oral administration ([2]; 25 mg carvedilol gelatin suspension): about 7%
- relative absorption in the ileum in comparison with oral administration [2]: 28%
- relative absorption in the jejunum in comparison with oral administration [2]: 56%
- immediate release dose recovered as unchanged drug in urine ([3]; in vivo): less than 2%
- terminal (elimination) half-life ([3]; oral, immediate release): 7 to 10 h

SMILES: COc1ccccc1OCCNC[C@H](O)COc1cccc2[nH]c3ccccc3c12 [S(−) Carvedilol]
- increase of plasma levels in poor metabolisers ([3]; in vivo): 20-25%

SMILES: COc1ccccc1OCCNC[C@@H](O)COc1cccc2[nH]c3ccccc3c12 [R(+) Carvedilol]
- higher plasma concentration in poor metabolisers compared to extensive metabolisers ([3]; in vivo): 2-3 fold
- plasma levels of R(+) relative to S(−) ([3]; in vivo, po): 2-3 times
